In patent publication US20240024446A1 (priority 2020, published 2024):
“And” between values parts separate entries of the source, which are not always exact repeats. Equal entries are not always repeated.

How the values were obtained:
C6 cells [1] = experiment: In vitro potency test/neutralization assay with fish sera on C6 cells; format: cell-based, rats
Description: In line with Example 7, an in vitro potency test/neutralization assay was performed with the sera raised as described in Example 8. For this, C6 cells were seeded at 2.0*10^4 cells/ml, 100 μl per well, and grown at 37° C., 5% CO2 for 3 days. Cells were incubated for 48 h, with a combination of 20 μg/ml AFB1 and 32× diluted serum derived from fish vaccinated with AFB1-KLH in GNE or vaccinated with a placebo. Percentages of live cells were determined by microscopical evaluation.

C6 cells [2] = format: cell-based, rats
[3] = format: in vivo; conditions: pig plasma; DON bolus 0.05 mg/kg at 11 weeks of age; DON-KLH = pigs immunised IM at 3 and 6 weeks, DON = control pigs
Description: Ten 3 week old pigs were used in the study, divided over 2 groups of 5 pigs each. The pigs in Group 1 were immunised IM twice at 3 and 6 weeks of age with DON-KLH (Test Article 1; example1). Group 2 served as a control and only received a control fluid. At the age of 11 weeks the animals were each administered DON (Fermentek, Israel) via a bolus at a dose of 0.05 mg/kg which (based on the daily feed intake) resembled a contamination level of 1 mg/kg feed. Blood samples of the pigs were taken juts before DON administration and 0.25, 0.5, 0.75, 1, 1.5, 2, 3, 4, 6, 8, and 12 h post DON administration.
Plasma analysis of unbound DON was done using a validated LC-MS/MS method on an Acquity® UPLC system coupled to a Xevo® TQ-S MS instrument (Waters, Zellik, Belgium). The lower limit of quantification of DON in pig plasma using this method is 0.1 ng/ml.
Toxicokinetic modeling of the plasma concentration-time profiles of DON was done by noncompartmental analysis (Phoenix, Pharsight Corporation, USA). Following parameters were calculated: area under the curve from time zero to infinite (AUC0→∞), maximal plasma concentration (Cmax), and time at maximal plasma concentration (tmax).

SMILES | Percentage live cells after incubation with AFB1 and diluted fish serum (C6 cells [1]) | concentration from which toxic on C6 cells (dose response curve) (C6 cells [2]) | AUC0→∞ of unbound DON [3] | Cmax of unbound DON [3]
COc1cc2c(c3oc(=O)c4c(c13)CCC4=O)[C@@H]1C=CO[C@@H]1O2 [AFB1, Aflatoxin B1] | 95% and 65% | ≥ 20000 ng/mL | – | –
CC1=C[C@H]2O[C@@H]3[C@H](O)C[C@](C)([C@@]2(CO)[C@H](O)C1=O)[C@]31CO1 [DON, deoxynivalenol] | – | – | 187 ± 33 | 30.8 ± 2.5
